Earlier results on 2 compounds are cited in US8673586B2, “Compounds that interact with kinases” (Alchemia Limited, priority 2002, dated 2014).

In one series the test system is CK1. The settings on record: inhibitor concentration 10 μM; cited from earlier work.
A further series deals with CDK2 (Homo sapiens, UniProt P24941). To be noted: inhibitor concentration 10 μM; cited from earlier work.
The target in another series is SAPK2a (Homo sapiens, UniProt Q16539). To be noted: inhibitor concentration 10 μM; cited from earlier work.
Chain of SAPK2a (Q16539 whole entry, species assumed): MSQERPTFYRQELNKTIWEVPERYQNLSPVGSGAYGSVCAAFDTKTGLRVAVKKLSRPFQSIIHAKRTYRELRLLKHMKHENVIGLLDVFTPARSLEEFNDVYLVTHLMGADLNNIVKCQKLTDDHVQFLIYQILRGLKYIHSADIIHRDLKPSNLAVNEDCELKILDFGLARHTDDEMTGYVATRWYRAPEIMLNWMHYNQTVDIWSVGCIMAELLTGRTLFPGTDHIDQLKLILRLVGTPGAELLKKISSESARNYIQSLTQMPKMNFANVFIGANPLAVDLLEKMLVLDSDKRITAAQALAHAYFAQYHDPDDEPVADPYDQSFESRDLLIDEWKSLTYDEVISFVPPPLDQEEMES
A further series deals with MKK1 (Homo sapiens, UniProt Q02750). To be noted: inhibitor concentration 10 μM; cited from earlier work.
Chain of MKK1 (Q02750 whole entry, species assumed): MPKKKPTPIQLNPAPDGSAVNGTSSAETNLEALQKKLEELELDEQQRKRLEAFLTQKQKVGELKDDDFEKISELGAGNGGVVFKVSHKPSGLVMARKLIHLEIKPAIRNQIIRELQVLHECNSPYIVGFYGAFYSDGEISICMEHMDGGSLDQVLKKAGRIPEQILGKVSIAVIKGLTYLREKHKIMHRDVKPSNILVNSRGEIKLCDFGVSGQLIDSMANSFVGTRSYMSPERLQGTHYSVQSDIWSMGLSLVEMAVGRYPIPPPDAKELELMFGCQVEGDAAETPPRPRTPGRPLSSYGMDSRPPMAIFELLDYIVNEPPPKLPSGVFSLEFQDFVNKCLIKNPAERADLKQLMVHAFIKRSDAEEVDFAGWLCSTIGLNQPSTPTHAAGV
The next series deals with S6K1 (Homo sapiens, UniProt P23443). To be noted: inhibitor concentration 1 μM; cited from earlier work.
Chain of S6K1 (P23443 whole entry, species assumed): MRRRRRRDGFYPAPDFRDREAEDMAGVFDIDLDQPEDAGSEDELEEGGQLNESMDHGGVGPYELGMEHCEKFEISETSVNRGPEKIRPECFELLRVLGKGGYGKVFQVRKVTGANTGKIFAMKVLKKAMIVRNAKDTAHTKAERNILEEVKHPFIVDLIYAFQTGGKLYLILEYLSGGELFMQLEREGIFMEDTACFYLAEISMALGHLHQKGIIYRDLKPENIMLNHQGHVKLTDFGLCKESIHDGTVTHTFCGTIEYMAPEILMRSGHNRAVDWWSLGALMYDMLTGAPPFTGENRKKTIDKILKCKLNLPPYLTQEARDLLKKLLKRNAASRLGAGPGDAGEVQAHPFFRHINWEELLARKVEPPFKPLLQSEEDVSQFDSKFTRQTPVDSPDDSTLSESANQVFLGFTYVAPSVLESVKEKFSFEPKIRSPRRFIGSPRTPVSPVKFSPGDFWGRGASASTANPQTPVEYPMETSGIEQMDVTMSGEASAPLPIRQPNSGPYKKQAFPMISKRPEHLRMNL
The next series deals with PKCα (Homo sapiens, UniProt P17252). The settings on record: inhibitor concentration 1 μM; cited from earlier work.
A further series addresses MSK-1 (Homo sapiens, UniProt O75582). To be noted: inhibitor concentration 1 μM; cited from earlier work.
Another series addresses MAPKAPK1b (Homo sapiens, UniProt P51812). The settings on record: inhibitor concentration 1 μM; cited from earlier work.
In the next series the target is GSK3β (Homo sapiens, UniProt P49841). The settings on record: inhibitor concentration 1 μM; cited from earlier work.
Chain of GSK3β (P49841 whole entry, species assumed): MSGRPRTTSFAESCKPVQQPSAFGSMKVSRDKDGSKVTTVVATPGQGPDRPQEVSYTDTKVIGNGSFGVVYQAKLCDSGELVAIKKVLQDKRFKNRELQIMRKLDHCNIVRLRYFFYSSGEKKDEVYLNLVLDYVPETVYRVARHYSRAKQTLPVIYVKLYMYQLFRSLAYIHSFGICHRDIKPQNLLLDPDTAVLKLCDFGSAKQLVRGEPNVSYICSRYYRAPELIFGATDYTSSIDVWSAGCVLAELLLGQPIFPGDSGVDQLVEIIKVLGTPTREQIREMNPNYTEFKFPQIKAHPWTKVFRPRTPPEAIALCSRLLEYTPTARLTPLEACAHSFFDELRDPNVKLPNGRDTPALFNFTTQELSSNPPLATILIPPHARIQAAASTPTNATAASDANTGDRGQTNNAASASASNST

Chain of MAPKAPK1b (P51812 whole entry, species assumed): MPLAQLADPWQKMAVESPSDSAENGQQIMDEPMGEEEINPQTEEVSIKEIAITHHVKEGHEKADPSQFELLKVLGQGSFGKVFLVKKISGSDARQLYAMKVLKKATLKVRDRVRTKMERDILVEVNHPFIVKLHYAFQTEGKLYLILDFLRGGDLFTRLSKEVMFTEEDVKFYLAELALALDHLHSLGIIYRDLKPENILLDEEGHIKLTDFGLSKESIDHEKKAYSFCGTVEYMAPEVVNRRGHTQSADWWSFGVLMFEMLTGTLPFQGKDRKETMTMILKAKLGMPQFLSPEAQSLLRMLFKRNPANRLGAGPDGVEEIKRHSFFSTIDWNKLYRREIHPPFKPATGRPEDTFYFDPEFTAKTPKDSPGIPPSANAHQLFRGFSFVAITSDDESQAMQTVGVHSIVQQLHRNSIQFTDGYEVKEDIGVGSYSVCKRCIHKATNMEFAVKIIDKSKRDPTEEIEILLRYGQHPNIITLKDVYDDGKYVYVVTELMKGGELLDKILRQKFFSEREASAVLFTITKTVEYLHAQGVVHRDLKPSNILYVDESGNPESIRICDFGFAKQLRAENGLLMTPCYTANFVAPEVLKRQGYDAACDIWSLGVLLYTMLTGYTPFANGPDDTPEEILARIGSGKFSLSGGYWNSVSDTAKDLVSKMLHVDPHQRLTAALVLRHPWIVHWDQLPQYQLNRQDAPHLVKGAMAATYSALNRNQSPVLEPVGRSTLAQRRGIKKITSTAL
Chain of MSK-1 (O75582 whole entry, species assumed): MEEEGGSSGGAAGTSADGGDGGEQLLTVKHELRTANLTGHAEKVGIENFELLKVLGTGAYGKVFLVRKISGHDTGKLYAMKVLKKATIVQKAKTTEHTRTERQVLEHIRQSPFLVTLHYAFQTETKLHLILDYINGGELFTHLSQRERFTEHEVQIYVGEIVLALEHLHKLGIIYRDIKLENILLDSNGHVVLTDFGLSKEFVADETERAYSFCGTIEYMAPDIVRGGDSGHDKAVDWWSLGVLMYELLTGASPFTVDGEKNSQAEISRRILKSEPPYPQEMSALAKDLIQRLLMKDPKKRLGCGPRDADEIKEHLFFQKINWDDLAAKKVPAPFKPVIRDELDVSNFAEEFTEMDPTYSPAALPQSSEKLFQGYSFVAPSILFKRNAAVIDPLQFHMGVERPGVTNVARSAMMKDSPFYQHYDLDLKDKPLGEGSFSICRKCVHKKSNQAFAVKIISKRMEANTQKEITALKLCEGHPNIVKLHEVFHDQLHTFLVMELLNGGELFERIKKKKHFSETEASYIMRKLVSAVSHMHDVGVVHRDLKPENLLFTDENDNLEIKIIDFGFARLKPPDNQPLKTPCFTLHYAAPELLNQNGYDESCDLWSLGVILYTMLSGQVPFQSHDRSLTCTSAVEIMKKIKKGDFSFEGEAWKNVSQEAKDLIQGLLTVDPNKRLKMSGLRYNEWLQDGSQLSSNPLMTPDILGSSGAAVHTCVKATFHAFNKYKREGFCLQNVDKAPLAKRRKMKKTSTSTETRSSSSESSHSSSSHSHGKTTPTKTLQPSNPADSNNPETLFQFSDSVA

Take `CC(C)(C)n1nc(-c2ccc(Cl)cc2)c2c(N)ncnc21` [PP2]: the “residual activity CK1” value in the series with CK1 is 6%. Moreover, at CDK2, the “residual activity CDK2” value is recorded as 3%. The “residual activity SAPK2a” value at SAPK2a was 21%. The “residual activity MKK1” value on MKK1 was 55%.

For Ro-31-8220, the “residual activity S6K1” value at S6K1 is 6%. Also, the “residual activity PKCα” value at PKCα is 3%. In addition, the “residual activity MSK1” value on MSK-1 is given as 2%. Further, the “residual activity MAPKAPK1b” value at MAPKAPK1b was 2%. Besides, the “residual activity GSK3β” value at GSK3β is 5%.
